Measured values as given in patent US10619138B2, “Herbicide-resistant hydroxyphenylpyruvate dioxygenases” (BASF SE, priority 2013, dated 2020).
Several values for one entry are separate records, joined by “and”; a condition that tells them apart may be missing. Identical values can stand only once.

What was measured:
[1] = target: T1, Arabidopsis HPPD (SEQ ID NO: 42) (Arabidopsis thaliana, UniProt P93836); assay: In vitro HPPD activity assay (HGA by HPLC), wildtype enzyme characterization; format: biochemical; conditions: for TI (normalized tolerance index): normalized on Arabidopsis wild-type HPPD, reference enzyme
T1 construct: Arabidopsis (42); His tag; made in house; host or cells: E. coli BL21 (DE3)
T1 sequence (P93836 1-445): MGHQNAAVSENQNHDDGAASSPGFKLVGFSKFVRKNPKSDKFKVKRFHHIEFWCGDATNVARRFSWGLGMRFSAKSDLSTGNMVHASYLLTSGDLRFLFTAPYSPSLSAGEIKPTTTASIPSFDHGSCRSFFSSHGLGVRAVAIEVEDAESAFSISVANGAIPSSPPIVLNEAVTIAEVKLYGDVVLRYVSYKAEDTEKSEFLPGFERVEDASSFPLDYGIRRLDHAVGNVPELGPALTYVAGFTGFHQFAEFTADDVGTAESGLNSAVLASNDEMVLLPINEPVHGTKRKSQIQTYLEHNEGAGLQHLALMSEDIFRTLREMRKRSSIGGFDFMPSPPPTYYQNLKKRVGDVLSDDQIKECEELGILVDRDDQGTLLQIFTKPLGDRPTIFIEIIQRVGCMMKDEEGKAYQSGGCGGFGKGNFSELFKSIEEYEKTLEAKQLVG
Method: (§1) The activity assay for HPPD is based on the analysis of homogentisic acid by reversed phase HPLC.
(§2) The assay mixture can contain 150 mM potassium phosphate buffer pH 7.0, 50 mM L-ascorbic acid, 100 μM Catalase (Sigma-Aldrich), 1 μM FeSO4 and 0.2 units of purified HPPD enzyme in a total volume of 505 μl. 1 unit is defined as the amount of enzyme that is required to produce 1 nmol of HGA per minute at 20° C.
(§3) The reaction is allowed to proceed for 45 min at room temperature. The reaction is stopped by the addition of 50 μl of 4.5 M phosphoric acid. The sample is filtered using a […] pore size PVDF filtration device.
(§4) 5 μl of the cleared sample is analyzed on an UPLC HSS T3 column (particle size 1.8 μm, dimensions 2.1×50 mm; Waters) by isocratic elution using 90% 20 mM NaH2PO4 pH 2.2, 10% methanol (v/v).
(§5) HGA is detected electrochemically at 750 mV (mode: DC; polarity: positive) and quantified by integrating peak areas (Empower software; Waters).
Inhibitors are dissolved in DMSO (dimethylsulfoxide) to a concentration of 0.5 mM. From this stock solution serial five-fold dilutions are prepared in DMSO, which are used in the assay. The respective inhibitor solution accounts for 1% of the assay volume. […] Activities are normalized by setting the uninhibited enzyme activity to 100%. IC50 values are calculated using non-linear regression.
(§6) Using methods which are described in the above examples or well known in the art, purified, recombinant wildtype HPPD enzymes are characterized with respect to their kinetic properties and sensitivity towards HPPD inhibiting herbicides. Apparent michaelis constants (Km) and maximal reaction velocities (Vmax) are calculated by non-linear regression with the software GraphPad Prism 5 (GraphPad Software, La Jolla, USA) using a substrate inhibition model. […] Weighted means (by standard error) of Km and IC50 values are calculated from at least three independent experiments.
(§7) Field performance of the HPPD enzyme, which is used as a herbicide tolerance trait may depend not only on its lack of sensitivity towards HPPD inhibiting herbicides but also on its activity. To assess the potential performance of a herbicide tolerance trait a tolerance index (TI) is calculated using the following formula: […]
(§8) Easy comparison and ranking of each trait is enabled by normalizing tolerance indexes on Arabidopsis wild-type HPPD.

[2] = tested on: Acidobacterium HPPD (SEQ ID NO: 30); assay: In vitro HPPD activity assay, tolerance index; format: biochemical, Acidobacterium capsulatum; conditions: normalized on Arabidopsis wild-type HPPD
Method: as §1, §2, §3, §4, §5
(§9) Inhibitors are dissolved in DMSO (dimethylsulfoxide) to a concentration of 0.5 mM. From this stock solution serial five-fold dilutions are prepared in DMSO, which are used in the assay. The respective inhibitor solution accounts for 1% of the assay volume. Thus, final inhibitor concentrations range from 5 μM to 320 pM, respectively. Activities are normalized by setting the uninhibited enzyme activity to 100%. IC50 values are calculated using non-linear regression.
as §6, with “experiments. The Cheng-Prusoff equation for competitive inhibition (Cheng, Y. C.; Prusoff, W. H. Biochem Pharmacol 1973, 22, 3099-3108) is used to calculate dissociation constants (Ki).” for “experiments.”
as §7, §8

[3] = tested on: Pontibacter HPPD (SEQ ID NO: 16); assay: In vitro HPPD activity assay, tolerance index; format: biochemical, Pontibacter sp.; conditions: normalized on Arabidopsis wild-type HPPD
Method: as §1, §2, §3, §4, §5, §9
as §6, with “experiments. The Cheng-Prusoff equation for competitive inhibition (Cheng, Y. C.; Prusoff, W. H. Biochem Pharmacol 1973, 22, 3099-3108) is used to calculate dissociation constants (Ki).” for “experiments.”
as §7, §8

[4] = tested on: Microscilla HPPD (SEQ ID NO: 20); assay: In vitro HPPD activity assay, tolerance index; format: biochemical, Microscilla marina; conditions: normalized on Arabidopsis wild-type HPPD
Method: as §1, §2, §3, §4, §5, §9
as §6, with “experiments. The Cheng-Prusoff equation for competitive inhibition (Cheng, Y. C.; Prusoff, W. H. Biochem Pharmacol 1973, 22, 3099-3108) is used to calculate dissociation constants (Ki).” for “experiments.”
as §7, §8

[5] = tested on: transgenic Arabidopsis plants expressing Scenedesmus HPPD; assay: Greenhouse herbicide spray test, transgenic plants (T2); format: in vivo, Arabidopsis thaliana; conditions: two weeks after treatment
Description: (§10) Additionally, T1 and T2 transgenic Arabidopsis plants can be tested for improved tolerance to HPPD-inhibiting herbicides in greenhouse studies. Herbicide injury scoring is done 2-3 weeks after treatment and is rated on a scale of 0 to 100%, 0% being no injury and 100% being complete death.
(§11) Transgenic Arabidopsis plants were sprayed with a range of doses from 1.56-50 g/ha with HPPD-inhibiting herbicides and injury evaluations were taken two weeks after treatment. […] As depicted in Table 6, control plants are severely injured by all doses of herbicide applied, with at least 70% of leaf material being damaged at the lowest application rate. For example, transgenic plants expressing Scenedesmus HPPD have an excellent tolerance to all herbidcides tested. […] After application of Inhibitor 2, only 18% of leaf material was damaged resulting in a 5-fold tolerance compared to the WT at the highest application rate.

[6] = tested on: transgenic Arabidopsis plants expressing Acidobacterium HPPD; assay: as above; format: in vivo, Arabidopsis thaliana; conditions: two weeks after treatment
Description: as §10, §11

[7] = tested on: transgenic Arabidopsis plants expressing Algoriphagus HPPD; assay: as above; format: in vivo, Arabidopsis thaliana; conditions: two weeks after treatment
Description: as §10, §11

[8] = tested on: Algoriphagus HPPD (SEQ ID NO: 22); assay: In vitro HPPD activity assay, tolerance index; format: biochemical, Algoriphagus machipongonensis; conditions: normalized on Arabidopsis wild-type HPPD
Method: as §1, §2, §3, §4, §5, §9
as §6, with “experiments. The Cheng-Prusoff equation for competitive inhibition (Cheng, Y. C.; Prusoff, W. H. Biochem Pharmacol 1973, 22, 3099-3108) is used to calculate dissociation constants (Ki).” for “experiments.”
as §7, §8

[9] = tested on: untransformed wild-type (WT) Arabidopsis plants; assay: Greenhouse herbicide spray test, wild-type plants; format: in vivo, Arabidopsis thaliana; conditions: two weeks after treatment, mean of three plants
Description: as §10, §11

[10] = tested on: Mucilaginibacter HPPD (SEQ ID NO: 28); assay: In vitro HPPD activity assay, tolerance index; format: biochemical, Mucilaginibacter paludis; conditions: normalized on Arabidopsis wild-type HPPD
Method: as §1, §2, §3, §4, §5, §9
as §6, with “experiments. The Cheng-Prusoff equation for competitive inhibition (Cheng, Y. C.; Prusoff, W. H. Biochem Pharmacol 1973, 22, 3099-3108) is used to calculate dissociation constants (Ki).” for “experiments.”
as §7, §8

[11] = tested on: Geodermatophilus HPPD (SEQ ID NO: 32); assay: In vitro HPPD activity assay, tolerance index; format: biochemical, Geodermatophilus obscurus; conditions: normalized on Arabidopsis wild-type HPPD
Method: as §1, §2, §3, §4, §5, §9
as §6, with “experiments. The Cheng-Prusoff equation for competitive inhibition (Cheng, Y. C.; Prusoff, W. H. Biochem Pharmacol 1973, 22, 3099-3108) is used to calculate dissociation constants (Ki).” for “experiments.”
as §7, §8

[12] = tested on: Scenedesmus HPPD (SEQ ID NO: 4); assay: In vitro HPPD activity assay, tolerance index; format: biochemical, Scenedesmus obliquus; conditions: normalized on Arabidopsis wild-type HPPD
Method: as §1, §2, §3, §4, §5, §9
as §6, with “experiments. The Cheng-Prusoff equation for competitive inhibition (Cheng, Y. C.; Prusoff, W. H. Biochem Pharmacol 1973, 22, 3099-3108) is used to calculate dissociation constants (Ki).” for “experiments.”
as §7, §8

[13] = tested on: Belliella HPPD (SEQ ID NO: 12); assay: In vitro HPPD activity assay, tolerance index; format: biochemical, Belliella baltica; conditions: normalized on Arabidopsis wild-type HPPD
Method: as §1, §2, §3, §4, §5, §9
as §6, with “experiments. The Cheng-Prusoff equation for competitive inhibition (Cheng, Y. C.; Prusoff, W. H. Biochem Pharmacol 1973, 22, 3099-3108) is used to calculate dissociation constants (Ki).” for “experiments.”
as §7, §8

[14] = tested on: Herpetosiphon HPPD (SEQ ID NO: 26); assay: In vitro HPPD activity assay, tolerance index; format: biochemical, Herpetosiphon aurantiacus; conditions: normalized on Arabidopsis wild-type HPPD
Method: as §1, §2, §3, §4, §5, §9
as §6, with “experiments. The Cheng-Prusoff equation for competitive inhibition (Cheng, Y. C.; Prusoff, W. H. Biochem Pharmacol 1973, 22, 3099-3108) is used to calculate dissociation constants (Ki).” for “experiments.”
as §7, §8

For `Cc1c(C(=O)c2cnn(C)c2O)ccc(S(C)(=O)=O)c1C1=NOCC1` [Inhibitor 1, [3-(4,5-dihydroisoxazol-3-yl)-2-methyl-4-methylsulfonyl-phenyl]-(5-hydroxy-1-methyl-pyrazol-4-yl)methanone], the Ki [1] was 950 pM, the “TI (normalized tolerance index)” value [1] was 1 and the “TI (tolerance index)” value ([1]; not normalized) was 0.95E−3. The “TI (normalized tolerance index)” value [2] was 22 and 21.9, the “TI (normalized tolerance index)” value [3] was 5.3 and the “TI (normalized tolerance index)” value [4] was 9.1. The “Injury evaluation, scale 0-100%” value ([5]; Scenedesmus HPPD Event 1, 1.56 g/ha) was 35%, the “Injury evaluation, scale 0-100%” value ([5]; Scenedesmus HPPD Event 1, 3.125 g/ha) was 58% and the “Injury evaluation, scale 0-100%” value ([5]; Scenedesmus HPPD Event 1, 6.25 g/ha) was 68%. The “Injury evaluation, scale 0-100%” value ([5]; Scenedesmus HPPD Event 2, 1.56 g/ha) was 45%, the “Injury evaluation, scale 0-100%” value ([5]; Scenedesmus HPPD Event 2, 3.125 g/ha) was 55% and the “Injury evaluation, scale 0-100%” value ([5]; Scenedesmus HPPD Event 2, 6.25 g/ha) was 65%. For the same compound, the “Injury evaluation, scale 0-100%” value ([6]; Acidobacterium HPPD Event 1, 1.56 g/ha) was 43%, the “Injury evaluation, scale 0-100%” value ([6]; Acidobacterium HPPD Event 1, 3.125 g/ha) was 78% and the “Injury evaluation, scale 0-100%” value ([6]; Acidobacterium HPPD Event 1, 6.25 g/ha) was 94%. The “Injury evaluation, scale 0-100%” value ([6]; Acidobacterium HPPD Event 2, 1.56 g/ha) was 48%, the “Injury evaluation, scale 0-100%” value ([6]; Acidobacterium HPPD Event 2, 3.125 g/ha) was 78% and the “Injury evaluation, scale 0-100%” value ([6]; Acidobacterium HPPD Event 2, 6.25 g/ha) was 97%. For the same compound, the “Injury evaluation, scale 0-100%” value ([7]; Algoriphagus HPPD Event 1, 1.56 g/ha) was 60%, the “Injury evaluation, scale 0-100%” value ([7]; Algoriphagus HPPD Event 1, 3.125 g/ha) was 70% and the “Injury evaluation, scale 0-100%” value ([7]; Algoriphagus HPPD Event 1, 6.25 g/ha) was 90%. The “Injury evaluation, scale 0-100%” value ([7]; Algoriphagus HPPD Event 2, 1.56 g/ha) was 48%, the “Injury evaluation, scale 0-100%” value ([7]; Algoriphagus HPPD Event 2, 3.125 g/ha) was 68% and the “Injury evaluation, scale 0-100%” value ([7]; Algoriphagus HPPD Event 2, 6.25 g/ha) was 78%. The “TI (normalized tolerance index)” value [8] was 23.7, the “Injury evaluation, scale 0-100%” value ([9]; 1.56 g/ha) was 88% and the “Injury evaluation, scale 0-100%” value ([9]; 3.125 g/ha) was 90%. The “Injury evaluation, scale 0-100%” value ([9]; 6.25 g/ha) was 90% and the “TI (normalized tolerance index)” value [10] was 56.8.
For `CC(=O)N(C)c1c(Cl)ccc(C2=C(O)c3ncccc3C(C)(C)S2(=O)=O)c1Cl` [Inhibitor 6, N-[2,6-dichloro-3-(8-hydroxy-5,5-dimethyl-6,6-dioxo-thiopyrano[4,3-b]pyridin-7-yl)phenyl]-N-methyl-acetamide], the “TI (normalized tolerance index)” value [1] was 1, the “TI (normalized tolerance index)” value [11] was 3.4 and the “TI (normalized tolerance index)” value [3] was 1.5. The “TI (normalized tolerance index)” value [4] was 14.7, the “TI (normalized tolerance index)” value [8] was 29.7 and the “TI (normalized tolerance index)” value [12] was 0.3. The “TI (normalized tolerance index)” value [13] was 7.6, the “TI (normalized tolerance index)” value [14] was 1.2 and the “TI (normalized tolerance index)” value [10] was 3.1.
`CC1=NOC(c2c(Cl)ccc(C3=C(O)c4ncccc4C(C)(C)S3(=O)=O)c2Cl)C1` (centres unmarked) [Inhibitor 7, 7-[2,4-dichloro-3-(3-methyl-4,5-dihydroisoxazol-5-yl)phenyl]-5,5-dimethyl-6,6-dioxo-thiopyrano[4,3-b]pyridin-8-ol] was tested, and the “TI (normalized tolerance index)” value [1] was 1, the “TI (normalized tolerance index)” value [2] was 239 and 238.9 and the “TI (normalized tolerance index)” value [3] was 107.7. The “TI (normalized tolerance index)” value [4] was 337.7, the “TI (normalized tolerance index)” value [8] was 448 and 447.5 and the “TI (normalized tolerance index)” value [10] was 62.6.
